Measured values published in PMC11843613, “Further Optimization of the mGlu1 PAM VU6024578/BI02982816: Discovery and Characterization of VU6033685” (ACS Chemical Neuroscience, 2025).

Key:
h mGlu5 = h mGlu5 (Homo sapiens, UniProt P41594); experiment: mGlu5 PAM functional assay; assay type: cell-based
[1] = Predicted hepatic clearance (dog); assay type: in vitro ADME
Description: at half log concentrations in DMSO were further diluted in assay buffer. The compounds or DMSO vehicle were added to cells and incubated for 2.5 min and an EC20 concentration of glutamate was added and incubated for 1 min. An ECmax concentration of glutamate was also added to cells that were incubated with DMSO vehicle to accurately calculate the EC20 calcium response. Data were normalized by subtracting the basal florescent peak before EC20 agonist addition from the maximal peak elicited by EC20 agonist and PAMs. Using GraphPad Prism 5.0, the concentration response curves were generated and the potencies of the mGlu1 PAMs were determined.
Plasma protein binding: The protein binding of each compound was determined in plasma via equilibrium dialysis employing RED Plates (ThermoFisher Scientific, Rochester, NY). Plasma was added to the 96 well plate containing test compound and mixed thoroughly for a final concentration of 5 µM. […]
Each compound was assayed in triplicate within the same 96-well plate. Fraction unbound was determined using the following equation […]
After a 5 min preincubation, the reaction was initiated by addition of NADPH (1 mM). […] The in vitro half-life (T 1/2, min, Eq. 1), intrinsic clearance (CLint, mL/min/kg, Eq. 2) and subsequent predicted hepatic clearance (CLhep, mL/min/kg, Eq. 3) was determined […]

[2] = Sprague-Dawley, in vivo

h mGlu5, sequence (P41594 21-1212): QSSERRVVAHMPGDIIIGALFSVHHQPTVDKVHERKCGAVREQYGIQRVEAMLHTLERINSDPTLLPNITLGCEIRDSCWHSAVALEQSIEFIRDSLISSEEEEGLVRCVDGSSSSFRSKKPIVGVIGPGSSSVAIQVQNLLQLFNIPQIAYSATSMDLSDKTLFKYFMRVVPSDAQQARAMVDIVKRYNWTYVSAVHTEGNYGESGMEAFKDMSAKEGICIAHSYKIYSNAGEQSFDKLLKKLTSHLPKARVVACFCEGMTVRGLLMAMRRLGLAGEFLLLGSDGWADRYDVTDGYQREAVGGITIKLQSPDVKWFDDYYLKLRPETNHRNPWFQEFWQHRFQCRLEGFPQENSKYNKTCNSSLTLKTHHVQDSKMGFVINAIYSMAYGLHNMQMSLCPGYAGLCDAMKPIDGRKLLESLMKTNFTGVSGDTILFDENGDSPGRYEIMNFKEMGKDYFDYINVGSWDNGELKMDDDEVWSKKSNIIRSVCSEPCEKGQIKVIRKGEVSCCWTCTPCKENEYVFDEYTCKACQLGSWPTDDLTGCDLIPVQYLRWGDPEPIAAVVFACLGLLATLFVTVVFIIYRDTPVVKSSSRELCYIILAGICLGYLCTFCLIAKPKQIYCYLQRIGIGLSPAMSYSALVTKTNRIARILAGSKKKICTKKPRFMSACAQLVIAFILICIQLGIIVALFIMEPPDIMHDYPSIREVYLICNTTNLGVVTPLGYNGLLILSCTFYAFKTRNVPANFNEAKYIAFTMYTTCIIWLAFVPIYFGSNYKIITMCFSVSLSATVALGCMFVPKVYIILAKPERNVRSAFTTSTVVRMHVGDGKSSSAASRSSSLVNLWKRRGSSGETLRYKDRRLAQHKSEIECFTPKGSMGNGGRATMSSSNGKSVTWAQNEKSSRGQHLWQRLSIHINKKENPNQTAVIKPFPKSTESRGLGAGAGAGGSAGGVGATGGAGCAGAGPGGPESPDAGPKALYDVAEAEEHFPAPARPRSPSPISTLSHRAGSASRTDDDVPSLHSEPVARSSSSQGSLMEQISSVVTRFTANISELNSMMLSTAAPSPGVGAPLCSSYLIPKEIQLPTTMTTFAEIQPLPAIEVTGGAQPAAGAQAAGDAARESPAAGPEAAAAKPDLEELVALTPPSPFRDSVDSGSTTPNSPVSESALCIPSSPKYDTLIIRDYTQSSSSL

SMILES: Cc1nc(C2CC2)ccc1CNC(=O)c1cc(-n2cccn2)ccc1Cl [compound 8]
- mGlu5 Glu Max (h mGlu5): 72%
- EC50 (h mGlu5; Table 1, unit inferred): 3.76 µM
- Predicted CLhep (d) [1]: 15.1 mL/min/kg
- free brain concentration (fold rat EC50) that was well tolerated [2]: up to 5.3 fold
